{"source": "patent US20250280816A1", "about": "“INSECT TRAP” (Scotts Canada Ltd., priority 2017, published 2025)", "assay_type_in_all_cases": "in vivo, Cimex lectularius", "key": {"[1]": {"system": "bed bugs (C. lectularius)", "experiment": "three-dish, dual-choice olfactometer bioassay", "settings": "Exp. 23-37; nymphs; amounts in micrograms in parentheses of the bait", "description": "Bioassays were run in dual-choice olfactometers and in large Plexiglass arenas (FIG. 19). Dual-choice olfactometers consisted of two lateral Pyrex® glass Petri dishes, connected to a central dish (all dishes 3×9 cm inner diameter) via a Pyrex® glass tube (2.5 cm long×2 cm inner diameter). The dishes in this olfactometer mimic the natural still-air shelters in which bed bugs spend the day. Prior to the start of bioassays, a disc of paper toweling (9 cm diameter) was placed into each dish and a strip of paper toweling (2.4×0.6 cm) was inserted into the connecting glass tubing to provide traction for walking bed bugs. In addition, a piece of filter paper (2×3 cm; Whatman) was placed into each lateral dish and covered with a piece of cardboard (2×2 cm) as a refuge for bioassay insects.\nTreatment and control stimuli were randomly assigned to each lateral dish. Olfactometers were enclosed in opaque plastic bins to prevent light from entering and affecting the insects' responses. For each replicate, a single 3rd, 4th, or 5th instar C. lectularius nymph was released into the central chamber of the olfactometer, which was then covered with a glass plate to prevent escape. The single bed bug in each olfactometer was then allowed to explore all chambers. Each insect was released into an olfactometer at the end of the 14-h photophase allowing it to explore the chambers during 10 h of darkness, and to come to rest in one of the shelters during 10 h of light. After this 20-h period, the insect's position within the olfactometer was recorded. Any insects not found in a lateral chamber were recorded as non-responders. All experimental replicates were run at 24±2° C. and 30-60% RH. Olfactometers were washed with Sparkleen detergent (Fisher Scientific Co, Pittsburgh, PA, USA), and were oven-dried (Precision, Winchester, VA, USA) between each bioassay."}, "[2]": {"system": "bed bugs", "experiment": "pheromone-baited shelter traps in a heavily infested residential apartment (Room 106)", "settings": "Exp. 76-79, 24-h periods; for Mean ± SE number insects in baited shelter: VPCs total 500 μg, histamine 2,000 μg, nymphal and adult bed bugs; for Mean (±SE) number insects in control shelter: unbaited control shelter paired with the baited shelter", "quoted_text": "To determine whether bed bugs responded to synthetic pheromone lures not only in large arena laboratory bioassays but also in infested premises (residential apartments), we placed pheromone-baited shelter traps (see FIG. 19) in apartments with known or suspected bed bug infestations. […] Based on 24-hour trapping results in multiple apartments, we selected a single, heavily infested apartment (hereafter referred to as Room 106) for further testing of synthetic bed bug pheromone lures.\nReplicates (n=15-20) of each experiment consisted of paired shelters placed against a wall or furniture, with approximately 30-cm spacing between paired shelters and >1 m spacing between shelter pairs. For each shelter pair within each experiment, pheromone and control treatments were randomly assigned, and placement of replicates was alternated between the two experiments of Set 1 and Set 2. Because not more than 10 shelter pairs could be accommodated in Room 106 at any time, experimental data were collected over several consecutive 24-h periods. Every morning at 9:00, shelters were collected from Room 106 and immediately placed into separate labelled zipper lock bags which were then put on dry ice to kill the bed bugs that had entered a shelter. Bed bugs in each shelter were later counted in the laboratory under a microscope, noting their developmental stage (1st, 2nd, 3rd, or 4th instar, adult), sex (male, female), and evidence (or not) for blood feeding prior to entry into a shelter. Immediately following the removal of bed bug shelters from Room 106 each morning, new pre-prepared shelters were pheromone-baited (treatment) or not (control) and their position within shelter pairs randomly assigned (see above), again alternating placement of shelter pairs between Experiments 76 and 77 (Set 1) and between Experiments 78 and 79 (Set 2)."}, "[3]": {"system": "bed bugs", "experiment": "large Plexiglass arena bioassay with baited shelters", "settings": "adult males", "description": "The large two-chamber Plexiglass arena (180 cm long×12 cm high×13 cm wide) was designed with a central divider (180 cm long×5.5 cm high) to accommodate two pieces of wood (162 cm long×3.8 cm wide×0.8 cm high), each piece for testing the response of a single bed bug to a pheromone-baited shelter or a control shelter (see insert in FIG. 19) which were randomly assigned to either end of the wood. […] For each replicate, a single bed bug was placed in the center of the wood piece just prior to the end of the 14-h photophase, and its position was scored the next morning after the onset of the photophase.\nExperiments 68-75 also investigated the effect of the volatile pheromone components (VPCs) (E)-2-hexenal, (E)-2-octenal, dimethyl disulfide, dimethyl trisulfide and 2-hexanone, and the effect of the less-volatile pheromone component histamine (H), on attraction and arrestment of bed bugs. Treatment stimuli consisted of filter paper (4×2.2 cm) impregnated with H (2,000 μg) and covered with a piece of corrugated cardboard shelter (3×2.2 cm), and of VPCs formulated at a high dose (500 μg; Experiments 68-74) or a medium dose (50 μg; Exp. 75) in mineral oil (0.5 mL) and pipetted into the inverted lid of a 20-ml scintillation vial resting on top of the shelter (FIG. 19). Control stimuli were of identical design but the filter paper contained no H, and the mineral oil contained no VPCs."}}}
{"smiles": "NCCc1c[nH]cn1", "note": "[H, histamine]", "values": [{"measurement": "No. insects in bait chamber", "setting": "[1]", "result": 35}, {"measurement": "No. insects in control chamber", "setting": "[1]", "result": 10}, {"measurement": "No. insects not responding", "setting": "[1]", "result": 3}, {"measurement": "Mean ± SE number insects in baited shelter", "setting": "[2]", "result": "6.06 ± 1.28"}, {"measurement": "Mean ± SE number insects in baited shelter", "setting": "[2]; listed as histamine", "result": 6.06}, {"measurement": "Mean (±SE) number insects in control shelter", "setting": "[2]", "result": "4.53 ± 1.8"}, {"measurement": "Mean (±SE) number insects in control shelter", "setting": "[2]; listed as histamine", "result": 4.53}, {"measurement": "No. insects in shelter 1", "setting": "[3]; Exp. 68-71, 73, baited shelter 1 vs unbaited shelter 2, VPCs 500 μg, histamine 2,000 μg", "result": 12}, {"measurement": "No. insects not responding", "setting": "[3]; Exp. 68-71, 73, baited shelter 1 vs unbaited shelter 2", "result": 5}, {"measurement": "No. insects in shelter 2", "setting": "[3]; Exp. 68-71, 73, unbaited shelter 2 paired with the baited shelter 1", "result": 1}, {"measurement": "No. insects in shelter 2", "setting": "[3]; Exp. 68-71, 73, unbaited shelter 2 paired with the baited shelter 1, listed as histamine", "result": "one"}, {"measurement": "No. insects in shelter 2", "setting": "[3]; Exp. 72, shelter 2 H (2,000 μg) vs shelter 1 VPC (500 μg)", "result": 14}, {"measurement": "No. insects in shelter 2", "setting": "[3]; Exp. 74, shelter 2 H (2,000 μg) vs shelter 1 VPC (500 μg) + H", "result": 5}, {"measurement": "No. insects in shelter 2", "setting": "[3]; Exp. 75, shelter 2 H (2,000 μg) vs shelter 1 VPC (50 μg) + H", "result": 0}]}
